Reference: US8309730B2, “Nonsteroidal compounds useful as modulators of glucocorticoid receptor AP-1 and/or NF-kappab acitivity and use thereof” (Bristol-Myers Squibb Company, priority 2007, dated 2012)

Each molecule was assayed against T1, human glucocorticoid receptor (Homo sapiens, UniProt P04150) (assay: Glucocorticoid Receptor Binding Assay (I), fluorescence polarization competitor kit). Settings: purified human recombinant full-length GR, Fluormone GS Red, 2 h room temperature.
T1 construct: purified human recombinant full-length glucocorticoid receptor (2 nM); purchased Invitrogen Part #2893
T1 sequence (P04150 1-777): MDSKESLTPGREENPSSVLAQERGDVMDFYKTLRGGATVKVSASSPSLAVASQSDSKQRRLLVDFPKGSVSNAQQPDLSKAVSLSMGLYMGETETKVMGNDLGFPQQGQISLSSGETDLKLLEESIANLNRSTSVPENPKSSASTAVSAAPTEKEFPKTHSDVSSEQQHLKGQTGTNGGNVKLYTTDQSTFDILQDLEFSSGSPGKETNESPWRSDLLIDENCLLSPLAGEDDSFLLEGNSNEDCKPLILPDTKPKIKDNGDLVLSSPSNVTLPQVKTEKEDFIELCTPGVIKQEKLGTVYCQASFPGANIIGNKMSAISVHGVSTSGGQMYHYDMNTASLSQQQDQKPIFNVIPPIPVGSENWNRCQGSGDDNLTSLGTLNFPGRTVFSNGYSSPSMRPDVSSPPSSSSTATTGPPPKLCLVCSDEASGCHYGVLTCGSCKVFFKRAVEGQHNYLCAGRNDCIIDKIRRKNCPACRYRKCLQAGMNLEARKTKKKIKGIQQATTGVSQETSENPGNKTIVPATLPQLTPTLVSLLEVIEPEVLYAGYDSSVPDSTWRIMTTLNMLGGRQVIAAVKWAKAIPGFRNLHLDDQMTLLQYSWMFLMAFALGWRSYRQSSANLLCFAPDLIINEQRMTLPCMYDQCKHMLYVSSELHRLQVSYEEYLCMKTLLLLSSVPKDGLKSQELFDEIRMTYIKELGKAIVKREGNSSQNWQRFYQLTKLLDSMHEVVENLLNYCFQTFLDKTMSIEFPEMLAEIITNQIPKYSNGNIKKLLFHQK
Protocol: Briefly, purified human recombinant full-length glucocorticoid receptor (2 nM) was mixed with fluorescently labeled glucocorticoid (1 nM Fluormone GS Red) in the presence or absence of test compound. After two hours incubation at room temperature in the dark, the fluorescence polarization (FP) of the sample was measured. […] Test compounds were analyzed in the concentration range from 8.5E-05 μM to 5 μM.

| Ki [nM] | Compound |
| --- | --- |
| 4.45 | CC(C)(O)c1ccc([C@@](C)(O)[C@H]2CCCC3=Cc4c(-c5ccc(F)cc5)ncn4C[C@@]32C)cc1 [Example 98] |
| > 1150 | CC(=O)[C@H]1CCCC2=Cc3c(-c4ccccc4)ncn3C[C@@]21C [Example 26] |
| > 1150 | C[C@]12Cn3cnc(-c4ccccc4)c3C=C1CCC[C@@H]2[C@@H](O)c1ccccc1 (single isomer, unassigned) [Example 13] |
| 111 | C[C@]12Cn3cnc(-c4ccccc4)c3C=C1CCC[C@@H]2[C@](O)(c1csc2ccccc12)C(F)(F)F (racemic) [Example 38] |
| 2.12 | C[C@]12Cn3cnc(-c4ccc(F)cc4)c3C=C1CCC[C@@H]2[C@](C)(O)c1cccc(S(C)(=O)=O)c1 [Example 8a, (S)-1-((5aR,6S)-1-(4-fluorophenyl)-5a-methyl-5,5a,6,7,8,9-hexahydroimidazo[1,5-b]isoquinolin-6-yl)-1-(3-(methylsulfonyl)phenyl)ethanol] |
| 67.1 | C[C@]12Cn3cnc(-c4ccc(F)cc4)c3C=C1CCC[C@@H]2CC(=O)Nc1nccs1 [Example 86] |
| 11.4 | CC(C)(C)OC(=O)NCC[C@H]1CCCC2=Cc3c(-c4ccc(F)cc4)ncn3C[C@@]21C [Example 88] |
| 209 | CC[C@@](O)(c1csc2ccccc12)[C@H]1CCCC2=Cc3c(-c4ccccc4)ncn3C[C@@]21C (racemic) [Example 37] |
| 86.3 | C[C@]12Cn3cnc(-c4ccccc4)c3C=C1CCC[C@@H]2[C@H](O)c1ccccc1 (racemic) [Example 12] |
| 493 | C[C@]12Cn3cnc(-c4ccccc4)c3C=C1CCC[C@@H]2[C@H](O)c1csc2ccccc12 (single isomer, unassigned) [Example 28] |
| 3.42 | C[C@]12Cn3cnc(-c4ccc(F)cc4)c3C=C1CCC[C@@H]2[C@](C)(O)c1ccc(C#N)cc1 [Example 79] |
| 85.5 | C[C@]12Cn3cnc(-c4ccc(F)cc4)c3C=C1CCC[C@@H]2[C@H](O)C(F)(F)F [Example 91] |
| 755 | C=CC1(O)CCCC2=Cc3c(-c4ccc(F)cc4)ncn3CC21C (centres unmarked) [Example 101, 1-(4-Fluorophenyl)-5a-methyl-6-vinyl-5,5a,6,7,8,9-hexahydroimidazo[1,5-b]isoquinolin-6-ol] |
| 35.3 | C[C@]12Cn3cnc(-c4ccc(F)cc4)c3C=C1CCC[C@@H]2[C@@H](O)c1ccc(F)cc1 [Example 49] |
| 94.4 | COc1cccc([C@H](O)[C@H]2CCCC3=Cc4c(-c5ccccc5)ncn4C[C@@]32C)c1 (racemic) [Example 22] |
| > 1150 | C[C@]12Cn3cnc(-c4ccc(F)cc4)c3C=C1CCC[C@@H]2C(=O)c1ccccc1CN1CCCC1 [Example 72] |
| 18.3 | C[C@]12Cn3cnc(-c4ccccc4)c3C=C1CCC[C@@H]2[C@@H](O)Cc1ccccc1 (racemic) [Example 20] |
| > 1150 | C[C@]12Cn3cnc(-c4ccc(F)cc4)c3C=C1CCC[C@@H]2C(=O)c1csc2ccccc12 (single isomer, unassigned) [Example 44] |
| 215 | C[C@]12Cn3cnc(-c4ccc(F)cc4)c3C=C1CCC[C@@H]2CNc1nccs1 [Example 4b, N-(((5aR,6S)-1-(4-fluorophenyl)-5a-methyl-5,5a,6,7,8,9-hexahydroimidazo[1,5-b]isoquinolin-6-yl)methyl)thiazol-2-amine] |
| 57.5 | COc1cccc([C@@H](O)[C@H]2CCCC3=Cc4c(-c5ccccc5)ncn4C[C@@]32C)c1 (racemic) [Example 23] |
| 65 | C[C@]12Cn3cnc(-c4ccccc4)c3C=C1CCC[C@@H]2[C@@H](O)c1ccccc1 (single isomer, unassigned) [Example 14] |
| 29.7 | C[C@]12Cn3cnc(-c4ccc(F)cc4)c3C=C1CCC[C@@H]2[C@H](O)c1ccc(F)cc1 [Example 50] |
| > 1150 | C[C@]12Cn3cnc(-c4ccccc4)c3C=C1CCC[C@@H]2[C@](C)(O)c1csc2ccccc12 (single isomer, unassigned) [Example 32] |
| 69.8 | CO[C@](C)(c1cccs1)[C@H]1CCCC2=Cc3c(-c4ccc(F)cc4)ncn3C[C@@]21C [Example 2, (5aR,6S)-1-(4-Fluorophenyl)-6-((S)-1-methoxy-1-(thiophen-2-yl)ethyl)-5a-methyl-5,5a,6,7,8,9-hexahydroimidazo[1,5-b]isoquinoline] |
| 103 | C[C@]12Cn3cnc(-c4ccc(F)cc4)c3C=C1CCC[C@@H]2[C@@H](O)C(F)(F)F [Example 90] |

| Ki [nM] | Compound |
| --- | --- |
| 22.3 | C=CC[C@@H](O)[C@H]1CCCC2=Cc3c(-c4ccccc4)ncn3C[C@@]21C (racemic) [Example 19] |
| 202 | C[C@@H](O)[C@H]1CCCC2=Cc3c(-c4ccccc4)ncn3C[C@@]21C (racemic) [Example 25] |
| 90.1 | COc1ccc([C@H](O)[C@H]2CCCC3=Cc4c(-c5ccccc5)ncn4C[C@@]32C)cc1 (racemic) [Example 16] |
| 878 | C[C@]12Cn3cnc(-c4ccc(F)cc4)c3C=C1CCC[C@@H]2C(=O)c1ccc(F)cc1 [Example 47] |
| 7.13 | C[C@]12Cn3cnc(-c4ccc(F)cc4)c3C=C1CCC[C@@H]2CC(=O)Nc1nncs1 [Example 6, 2-((5aR,6R)-1-(4-fluorophenyl)-5a-methyl-5,5a,6,7,8,9-hexahydroimidazo[1,5-b]isoquinolin-6-yl)-N-(1,3,4-thiadiazol-2-yl)acetamide] |
| 9.67 | CC(C)C[C@@](C)(O)[C@H]1CCCC2=Cc3c(-c4ccc(F)cc4)ncn3C[C@@]21C [Example 59] |
| 201 | C[C@]12Cn3cnc(-c4ccc(F)cc4)c3C=C1CCC[C@@H]2[C@]1(C)OC(=N)c2ccccc21 [Example 84] |
| 20.2 | C[C@]12Cn3cnc(-c4ccccc4)c3C=C1CCC[C@@H]2[C@@H](O)C1CCCCC1 (racemic) [Example 21] |
| 6.4 | C[C@]12Cn3cnc(-c4ccccc4)c3C=C1CCC[C@@H]2[C@](C)(O)c1ccccc1 (racemic) [Example 35] |
| > 1150 | C[C@]12Cn3cnc(-c4ccc(F)cc4)c3C=C1CCC[C@@H]2C(=O)c1csc2ccccc12 (single isomer, unassigned) [Example 43] |
| 8.67 | C=CC[C@@H](O)[C@H]1CCCC2=Cc3c(-c4ccc(F)cc4)ncn3C[C@@]21C [Example 52] |
| 1.43 | C[C@]12Cn3cnc(-c4ccc(F)cc4)c3C=C1CCC[C@@H]2[C@](C)(O)c1csc2ccccc12 (single isomer, unassigned) [Example 46] |
| 59.9 | C[C@]12Cn3cnc(-c4ccc(F)cc4)c3C=C1CCC[C@@H]2[C@](C)(O)C#Cc1ccccc1 [Example 70] |
| > 1150 | C[C@]12Cn3cnc(-c4ccccc4)c3C=C1CCC[C@@H]2C(=O)c1csc2ccccc12 (racemic) [Example 34] |
| 216 | CC12Cn3cnc(-c4ccc(F)cc4)c3C=C1CCCC2(O)c1ccc(Cl)cc1 (racemic) [Example 103] |
| 7.38 | C=CC[C@H](O)[C@H]1CCCC2=Cc3c(-c4ccc(F)cc4)ncn3C[C@@]21C [Example 51] |
| 364 | C[C@H](O)[C@H]1CCCC2=Cc3c(-c4ccccc4)ncn3C[C@@]21C (racemic) [Example 24] |
| 111 | C[C@]12Cn3cnc(-c4ccc(F)cc4)c3C=C1CCC[C@@H]2CO [Example 4a, ((5aR,6S)-1-(4-Fluorophenyl)-5a-methyl-5,5a,6,7,8,9-hexahydroimidazo[1,5-b]isoquinolin-6-yl)methanol] |
| 177 | C[C@]12Cn3cnc(-c4ccc(F)cc4)c3C=C1CCC[C@@H]2[C@]1(C)OC(=O)c2ccccc21 [Example 85] |
| 93.4 | COc1ccc([C@@H](O)[C@H]2CCCC3=Cc4c(-c5ccccc5)ncn4C[C@@]32C)cc1 (racemic) [Example 17] |
| 26.9 | C=CC[C@H](O)[C@H]1CCCC2=Cc3c(-c4ccccc4)ncn3C[C@@]21C (racemic) [Example 18] |
| 95.7 | CC(C)(C)NC(=O)NCC[C@H]1CCCC2=Cc3c(-c4ccc(F)cc4)ncn3C[C@@]21C [Example 7, 1-tert-Butyl-3-(2-((5aR,6R)-1-(4-fluorophenyl)-5a-methyl-5,5a,6,7,8,9-hexahydroimidazo[1,5-b]isoquinolin-6-yl)ethyl)urea] |
| 22.5 | C[C@]12Cn3cnc(-c4ccccc4)c3C=C1CCC[C@@H]2[C@@H](O)c1csc2ccccc12 (single isomer, unassigned) [Example 30] |
| 68.2 | C[C@]12Cn3cnc(-c4ccc(F)cc4)c3C=C1CCC[C@@H]2[C@](C)(O)c1ncccn1 [Example 11, (S)-1-((5aR,6S)-1-(4-Fluorophenyl)-5a-methyl-5,5a,6,7,8,9-hexahydroimidazo[1,5-b]isoquinolin-6-yl)-1-(pyrimidin-2-yl)ethanol] |
| > 1150 | C[C@]12Cn3cnc(-c4ccccc4)c3C=C1CCC[C@@H]2C(=O)c1ccccc1 (racemic) [Example 33] |
